This note sets out measurements from US12540150B1, “Fluorogenic probe using a Mislow-Evans rearrangement for real-time imaging of hydrogen peroxide” (University of Pittsburgh—Of the Commonwealth System of …, priority 2020, dated 2026).

“And” between values parts separate entries of the source, which are not always exact repeats. Equal values may be shown once.

Holding throughout (settings): for Fluorescence Intensity: pH 7, 25° C., 15 min
Assay [1] in a line: Selectivity of 1: reaction with ONOO^−. On the procedure:
(§1) Next, it was tested whether OCl^− and ONOO^− (peroxynitrite), would react with 1. A solution of 0, 1, 10, or 22 μM ONOO— in 0.3 M NaOH (20 μL) or 1, 10, 100, or 1000 μM NaOCl in water (20 μL) was added to the wells of a black 96-well plate. A solution of 10 μM 1 in DMSO (560 μL) and 5:95 MeCN/1.2 M phosphate pH 7 buffer (4.48 mL) was made; this solution (180 μL) was transferred to each of the wells. The samples were allowed to incubate at 25° C. for 15 min before the fluorescence was measured. […] This may be attributed to trace amounts of H2O2 in the ONOO^− solution.

Assay [2] can be described thus: Selectivity of 1: reaction with tBuOOH. On the procedure:
'BuOOH was also tested for reactivity with 1. A solution of 5:95 MeCN/50 mM phosphate pH 7 buffer (160 μL) was added to the wells of a black 96-well plate. 10 μM 1 in DMSO (20 μL) was added to each well. 0 mM H2O2 in water (20 μL) or 0, 10, or 100 μM tBuOOH in DMSO (20 μL) were then added to the wells.

Assay [3] can be described thus: Selectivity of 1: reaction with ClO^−. Here is the method:
as §1

As for `Oc1ccc2c(c1)Oc1cc(O/C=C/C[Se]c3ccccc3)ccc1[C@@]21OCc2ccccc21` [Compound 1, (S,E)-6′-((3-(Phenylselanyl)prop-1-en-1-yl)oxy)-3H-spiro[isobenzofuran-1,9′-xanthen]-3′-ol], the “fluorescence change with increasing ONOO^− concentration” value in assay [1] was “slight increase in fluorescence intensity”. Also, the “Fluorescence Intensity” value in assay [1] (100 nM ONOO^−) was 23,606 and 21,961 and 20,229; in assay [1] (1.0 μM ONOO^−), 46,271 and 39,358 and 35,209; in assay [1] (2.2 μM ONOO^−−), 63,954 and 56,351 and 61,987; in assay [2] (10 μM ^tBuOOH), 31,650 and 28,922 and 33,363; in assay [2] (H2O2), 277,013 and 296,506 and 250,145; in assay [2] (no ROS), 34,525 and 36,401 and 39,836. Moreover, the “Fluorescence Intensity” value in assay [3] (100 nM NaOCl) is 33,503 and 25,413 and 28,088; in assay [3] (1.0 μM NaOCl), 28,551 and 25,590 and 33,211; in assay [3] (10 μM NaOCl), 41,611 and 35,271 and 35,308; in assay [3] (100 μM NaOCl) it was 46,362 and 40,070 and 41,695; in assay [3] (no ROS) it was 30,591 and 24,478 and 26,025. Also, the “fluorescence with tBuOOH” value in assay [2] is reported as “did not produce fluorescence even at 10 μM”. In assay [3], the “fluorescence change with increasing concentrations of OCl^−” value is listed as “No statistically significant increase in fluorescence intensity”.
